Data published in patent US20080076751A1, “Azetidinone Derivatives and Methods of Use Thereof” (priority 2006, published 2008).

target: T1, TRPV1 (VR1) (Rattus norvegicus, UniProt O35433); test: TRPV1 screening assay (FLIPR, Fluo-4 calcium), capsaicin stimulation; format: cell-based; conditions: FLIPR, HEK293-TetOFF-TRPV1, capsaicin 50 nM final; read-out: VR1 flipr CAPSAICIN IC50
T1 construct: expressed in transfected cells; host or cells: HEK293-TetOFF, expression induced by withdrawing doxycycline
T1 sequence (O35433 whole entry): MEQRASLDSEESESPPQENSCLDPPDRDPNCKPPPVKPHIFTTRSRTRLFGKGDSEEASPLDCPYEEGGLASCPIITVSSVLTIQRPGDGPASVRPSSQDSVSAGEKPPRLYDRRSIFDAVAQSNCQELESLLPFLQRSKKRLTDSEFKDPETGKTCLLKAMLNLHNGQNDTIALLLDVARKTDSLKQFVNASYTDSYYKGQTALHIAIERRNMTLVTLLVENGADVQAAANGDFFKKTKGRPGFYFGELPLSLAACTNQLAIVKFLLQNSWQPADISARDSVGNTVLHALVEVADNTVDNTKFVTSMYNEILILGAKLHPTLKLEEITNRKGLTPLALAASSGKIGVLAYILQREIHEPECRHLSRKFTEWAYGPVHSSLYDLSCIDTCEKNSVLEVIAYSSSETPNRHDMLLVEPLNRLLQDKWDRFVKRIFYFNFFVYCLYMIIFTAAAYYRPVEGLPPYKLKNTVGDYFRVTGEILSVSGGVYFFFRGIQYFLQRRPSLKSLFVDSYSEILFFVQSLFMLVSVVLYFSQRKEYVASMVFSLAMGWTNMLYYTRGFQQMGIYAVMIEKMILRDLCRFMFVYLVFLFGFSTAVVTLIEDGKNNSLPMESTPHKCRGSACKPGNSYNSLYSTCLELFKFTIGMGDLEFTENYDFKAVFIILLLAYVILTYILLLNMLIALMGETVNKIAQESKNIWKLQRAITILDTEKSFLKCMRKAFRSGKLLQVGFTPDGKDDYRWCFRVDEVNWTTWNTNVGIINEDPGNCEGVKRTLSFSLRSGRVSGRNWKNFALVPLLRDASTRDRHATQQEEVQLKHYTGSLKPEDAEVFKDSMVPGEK
Text: • 1) Cell line: HEK293-Tet^OFF-TRPV1 • 2) Media: MEM (Invitrogen) • 3) 10% Tet-FBS (Clontech #8630-1) • 4) Fungizone (Gibe #15290-018 (100X)) • 5) Penn/Strep (Gibco #15140-122 (100X)) • 6) Geneticin (Gibco #10131-027 (100X)) • 7) Hygromycin (Clontech #8057-1) • 8) Doxycycline (Clontech #8634-1) • 9) Trypsin/EDTA (Gibco #25200-056) • 10) 100 mm cell culture plates (Falcon #3003) • 11) 96-well poly-D-lysine plates (Fisher #08-774-256) • 12) Hank's Balanced Salt Solution (HBSS) (GIBCO #14025-092) • 13) HEPES Buffer (GIBCO #15630-080) • 14) 30% BSA (Research Organics #1334A) • 15) Probenecid (Sigma P-8761) • 16) Fluo-4, AM (50 μg) (Molecular Probes F-23917) • 17) Pluronic F-127 20% (Molecular Probes P-3000). • 18) capsazepine (Sigma C-191) • 19) capsaicin (Sigma M-2028) • 20) compound plates (NUNC #442587) • 21) black pipet tips 96-well FLIPR (Robbins Scientific 1043-24-0) • 22) Additional reagents available from Fisher: methanol, DMSO, NaOH Reagent Preparation: 1) Cells: HEK293-Tet^OFF-TRPV11
• and Doxycycline 2.5 μg/mL final (from a 1000× stock in PBS) • Cells must be fed and/or split every 2-3 days (to maintain transcriptional repression with Doxycycline). • Must be split no more than 1:5 (50-75% confluency) to maintain growth and viability. • Grown on regular tissue culture plates (e.g Falcon 3003-100 mm) • Split cells via Trypsin/EDTA: incubate with trypsin at room temperature no longer than 5 minutes (HEK293 cells have a tendency to ball up if over trypsinized). • Two days prior to assay, the cells are split into 96-well plates in cell media in the absence of doxycycline at a concentration of 40,000 cells/well in a volume of 200 μL. 2) FLIPR buffer is prepared fresh:
Add 5 mL of Probenecid Solution, prepared as follows: 710 mg of probenecid (Sigma P-8761) is solubilized in 5 mL of 1N NaOH, 5 mL of above buffer is added for final volume of 10 mL. (of which 5 mL goes back into FLIPR buffer)
Combine 42 μL of dye mixture with 11 mL of FLIPR buffer/96-well plate.
Stock solution of 0.1 M capsaicin is prepared in MeOH (50 mg+1.6 mL MeOH). Store 50 μL aliquots at −80° C.
For assay: • a) Dilute stock by adding 0.8 μL into 1 mL of MeOH (final=80 uM). • b) Add 50 μL of diluted stock to 20 mL of FLIPR buffer (final=0.2 uM) • c) Agonist solution is added 150 μL/well to 96-well plate. • d) Final agonist concentration on cells will be 50 nM. […] Laser is adjusted upwards for an average signal≧10,000/well and less than 10% variability. 7) Compound addition conditions are as follows: • FLIPR setup (dual sequence parameters): • Sequence 1: • First interval 1 sec/60 counts • Second interval 6 sec/50 counts • Fluid addition=50 μL • Pipettor height 110 μL • Dispense Speed=30 μL/sec • Sequence 2: • Second interval 1 sec/60 counts • Second interval 6 sec/40 counts • Fluid addition=50 μL • Pipettor height=140 μL • Dispense Speed=50 μL/sec Data Analysis: • 1) Data from both additions is reported as Max-Min for each well

IC50 | SMILES
1 nM | CC(C)(C)c1ccc(NC(=O)N2CCC3(CC2)C(=O)N(c2ccccn2)C3c2ccccc2)cc1 (stereo not drawn)

same assay, conditions: reference antagonist in reagent preparation; read-out: IC50 of competitive antagonist capsazepine

IC50 | SMILES
~500 nM | Oc1cc2c(cc1O)CN(C(=S)NCCc1ccc(Cl)cc1)CCC2 [capsazepine, reference compound]

target: T2, human CaV3.2 (Homo sapiens, UniProt O95180); test: IonWorks screen for hCaV3.2 (T-type calcium current, voltage clamp); format: cell-based; conditions: IonWorks HT, HEK cells, 10 min incubation, pulse 10, 8-point curve; read-out: IW hCav3 2 IC50
T2 construct: expressed in transfected cells
T2 sequence (O95180 whole entry): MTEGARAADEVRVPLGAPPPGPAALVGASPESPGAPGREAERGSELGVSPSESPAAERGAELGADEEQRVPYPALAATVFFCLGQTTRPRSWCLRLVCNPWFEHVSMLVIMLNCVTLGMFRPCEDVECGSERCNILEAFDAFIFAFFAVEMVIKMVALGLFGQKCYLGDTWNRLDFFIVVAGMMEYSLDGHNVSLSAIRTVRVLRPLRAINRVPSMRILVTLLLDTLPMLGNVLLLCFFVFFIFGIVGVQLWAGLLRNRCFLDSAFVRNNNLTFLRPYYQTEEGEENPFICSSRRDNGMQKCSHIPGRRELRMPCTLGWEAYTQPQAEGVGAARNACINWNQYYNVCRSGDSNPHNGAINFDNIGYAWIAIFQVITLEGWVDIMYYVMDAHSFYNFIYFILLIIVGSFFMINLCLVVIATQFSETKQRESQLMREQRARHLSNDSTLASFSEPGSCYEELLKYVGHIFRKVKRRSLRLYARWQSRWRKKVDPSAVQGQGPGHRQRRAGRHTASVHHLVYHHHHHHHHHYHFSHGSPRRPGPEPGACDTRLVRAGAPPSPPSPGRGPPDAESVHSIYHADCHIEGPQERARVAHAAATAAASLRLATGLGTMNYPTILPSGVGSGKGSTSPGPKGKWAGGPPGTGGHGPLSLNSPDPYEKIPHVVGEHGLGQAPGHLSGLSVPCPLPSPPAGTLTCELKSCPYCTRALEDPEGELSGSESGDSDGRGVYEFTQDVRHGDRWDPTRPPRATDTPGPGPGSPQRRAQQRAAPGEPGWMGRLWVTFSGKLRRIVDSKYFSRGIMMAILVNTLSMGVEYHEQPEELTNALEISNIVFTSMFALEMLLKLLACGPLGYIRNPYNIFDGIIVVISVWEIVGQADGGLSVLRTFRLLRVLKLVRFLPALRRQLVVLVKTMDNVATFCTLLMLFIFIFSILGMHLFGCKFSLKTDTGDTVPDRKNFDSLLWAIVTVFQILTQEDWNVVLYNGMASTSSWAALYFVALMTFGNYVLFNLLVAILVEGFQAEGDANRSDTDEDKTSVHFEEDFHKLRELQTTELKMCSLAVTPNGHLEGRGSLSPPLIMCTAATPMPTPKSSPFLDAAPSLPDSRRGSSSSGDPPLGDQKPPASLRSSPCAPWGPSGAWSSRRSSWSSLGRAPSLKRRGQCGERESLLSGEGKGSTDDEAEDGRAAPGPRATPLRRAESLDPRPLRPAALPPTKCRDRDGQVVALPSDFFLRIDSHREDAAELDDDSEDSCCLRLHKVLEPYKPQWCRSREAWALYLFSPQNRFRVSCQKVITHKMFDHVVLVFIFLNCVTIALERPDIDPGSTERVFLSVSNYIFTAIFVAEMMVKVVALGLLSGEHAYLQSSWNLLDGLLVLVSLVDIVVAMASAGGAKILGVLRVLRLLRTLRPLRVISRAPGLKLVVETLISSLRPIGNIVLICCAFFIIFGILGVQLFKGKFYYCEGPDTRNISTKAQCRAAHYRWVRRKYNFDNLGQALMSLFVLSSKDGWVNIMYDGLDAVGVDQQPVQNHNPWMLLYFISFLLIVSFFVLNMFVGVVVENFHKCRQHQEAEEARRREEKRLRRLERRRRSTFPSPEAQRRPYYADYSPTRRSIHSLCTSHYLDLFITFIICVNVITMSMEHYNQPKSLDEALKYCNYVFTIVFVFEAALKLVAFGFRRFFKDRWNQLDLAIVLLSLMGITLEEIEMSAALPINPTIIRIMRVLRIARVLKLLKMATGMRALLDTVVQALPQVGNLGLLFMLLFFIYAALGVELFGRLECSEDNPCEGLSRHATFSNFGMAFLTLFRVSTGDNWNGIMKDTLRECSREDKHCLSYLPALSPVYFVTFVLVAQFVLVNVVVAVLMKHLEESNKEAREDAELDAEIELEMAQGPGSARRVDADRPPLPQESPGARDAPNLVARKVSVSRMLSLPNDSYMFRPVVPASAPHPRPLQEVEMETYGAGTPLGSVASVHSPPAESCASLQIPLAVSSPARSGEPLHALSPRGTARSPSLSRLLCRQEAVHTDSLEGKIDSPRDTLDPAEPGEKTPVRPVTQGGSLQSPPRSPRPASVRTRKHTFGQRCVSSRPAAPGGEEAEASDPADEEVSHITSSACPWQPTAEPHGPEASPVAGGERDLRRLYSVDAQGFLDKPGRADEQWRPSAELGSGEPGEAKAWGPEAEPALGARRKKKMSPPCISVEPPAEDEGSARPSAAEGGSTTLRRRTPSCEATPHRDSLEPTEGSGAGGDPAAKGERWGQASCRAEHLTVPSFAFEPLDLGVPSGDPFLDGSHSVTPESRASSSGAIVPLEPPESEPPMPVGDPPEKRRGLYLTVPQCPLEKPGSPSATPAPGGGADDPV
Text: Functional evaluation of voltage-gated ion channels can be used to determine potency and/or single concentration efficacy of the Azetidinone Derivatives of the present invention. Two different methodologies can be used to measure ion currents: the lonWorks HT (Molecular Devices, Sunnyvale, Calif.) a moderate throughput voltage clamp screening platform that utilizes 96-well compound plates and conventional whole cell patch clamp for lower throughput, higher fidelity determinations.
HEK cells are transiently transfected and then selected for stable heterologous expression of different channel proteins of interest. Calcium channel cell lines expressed a resting potassium current, human Kir2.1, and the pore forming α-subunit of voltage-gated calcium channels. In the case of CaV2.1 cells the auxiliary subunit, β2a, is also expressed. Calcium channel lines that are used to generate the data will express either human CaV3.2, rat CaV3.2 or human CaV2.1. The human heart sodium channel, hNaV1.5, are stably expressed in CHO cells.
Cell lines can be grown at 37° C. in humidified incubators, equilibrated with 95% air/5% CO2. CHO cells can be grown in Ham's F-12 medium. HEK cells can be grown in DMEM. All media are supplemented with 10% heat-inactivated fetal bovine serum, penicillin, streptomycin and appropriate selection antibiotics (zeocin, geneticin and/or hygromycin). Cells are passaged when 80% confluent or less.
IonWorks Screen for hCaV3.2
The extracellular buffer for experiments using this instrument contained the following (mM) (NaCl 125, HEPES 10, KCl 5.4, CaCl2 1.8, MgCl2 1.8, 0.2 BaCl2 pH 7.35). The lonWorks uses amphotericin to gain electrical access to the cell interior. The internal solution contained (mM concentrations): 130 K-gluconate, 20 KCl, 5 HEPES-KOH (pH 7.25), 2 CaCl2, 1 MgCl2. Amphotericin added at 5 mg in 65 mL when present (in 650 μL DMSO). All internal and external solutions for this experiment contain 1% DMSO. Cells were acutely trypsinized from a T-75 flask and resuspended in extracellular buffer at a density of 2×10^5 cells/mL.
Experiments were performed at room temperature. Transmembrane potential was held at −100 mV for 5 seconds prior to running the voltage protocol. During this time leak currents were measured during a step to −110 mV (200 milliseconds). T-type calcium currents were activated with a 250 millisecond step to −20 mV. This depolarization step was repeated for a total of 10 pulses with an interpulse interval of 1 second. Data were excluded if the following acceptance criteria were not met: total resistance for the pre-compound scan>65 MΩ, pre-compound current>250 pA, post compound total resistance>50 MΩ.
T-type currents were measured as the peak inward current minus the current at the end of the 250 msec step to −20 mV. After the recoding configuration was established there was a pre-compound measurement of current amplitude. Compound was added as a 3× solution containing 1% DMSO. After incubation with compound for 10 minutes currents were measured again. The current amplitude after compound addition was divided by the pre-compound current for pulse 10 to determine the fraction of current remaining after compound addition. For each compound, 8-point concentration-effect relationships were measured with ½ log serial dilutions.

IC50 | SMILES
584 nM | CC[C@H](C)[C@H](NC(=O)N1CCC2(CC1)C(=O)N(c1cccc(Cl)c1)C2c1ccccn1)C(=O)OC (stereo partly drawn) [drawing 571]
635 nM | CC[C@H](C)[C@H](NC(=O)N1CCC2(CC1)C(=O)N(c1cccc(Cl)c1)C2c1ccccn1)C(=O)OC (stereo partly drawn) [drawing 572]
745 nM | CC(NC(=O)N1CCC2(CC1)C(=O)N(c1cccc(Cl)c1)C2c1ccccn1)c1ccc(F)cc1 (stereo not drawn) [drawing 575]
191 nM | CC(NC(=O)N1CCC2(CC1)C(=O)N(c1cccc(Cl)c1)C2c1ccccn1)c1ccc(F)cc1 (stereo not drawn) [drawing 576]
732 nM | N#Cc1cccc(N2C(=O)C3(CCN(C(=O)Nc4cc(F)cc(F)c4)CC3)C2c2ccccn2)c1 (stereo not drawn) [drawing 585]
247 nM | N#Cc1cccc(N2C(=O)C3(CCN(C(=O)Nc4cc(F)cc(F)c4)CC3)C2c2ccccn2)c1 (stereo not drawn) [drawing 586]
2910 nM | N#Cc1cccc(NC(=O)N2CCC3(CC2)C(=O)N(c2cccc(C#N)c2)C3c2ccccn2)c1 (stereo not drawn) [drawing 593]
1170 nM | N#Cc1cccc(NC(=O)N2CCC3(CC2)C(=O)N(c2cccc(C#N)c2)C3c2ccccn2)c1 (stereo not drawn) [drawing 594]
225 nM | C[C@H](NC(=O)N1CCC2(CC1)C(=O)N(c1cccc(Cl)c1)C2c1cccnc1)c1ccc(F)cc1 (stereo partly drawn) [drawing 611]
124 nM | N#Cc1cccc(NC(=O)N2CCC3(CC2)C(=O)N(c2cccc(Cl)c2)C3c2cccnc2)c1 (stereo not drawn) [drawing 634]
21 nM | O=C(Nc1cc(F)cc(F)c1)N1CCC2(CC1)C(=O)N(c1cccc(Cl)c1)C2c1cccnc1 (stereo not drawn) [drawing 635]
420 nM | O=C(Nc1cc(F)cc(F)c1)N1CCC2(CC1)C(=O)N(c1cccc(Cl)c1)C2c1cccnc1 (stereo not drawn) [drawing 636]
669 nM | C[C@H](NC(=O)N1CCC2(CC1)C(=O)N(c1cccc(Cl)c1)C2c1cccnc1)c1ccc(F)cc1 (stereo partly drawn) [drawing 637]
880 nM | CC[C@H](C)[C@H](NC(=O)N1CCC2(CC1)C(=O)N(c1cccc(Cl)c1)C2c1cccnc1)C(=O)OC (stereo partly drawn) [drawing 640]
1300 nM | CC[C@H](C)[C@H](NC(=O)N1CCC2(CC1)C(=O)N(c1cccc(Cl)c1)C2c1cccnc1)C(=O)OC (stereo partly drawn) [drawing 641]
1660 nM | N#Cc1cccc(NC(=O)N2CCC3(CC2)C(=O)N(c2cccc(Cl)c2)C3c2cccnc2)c1 (stereo not drawn) [drawing 643]
